# Test system: PD-1-overexpressing Jurkat cells
# Assay: Small molecule screen: IL2 secretion (AlphaLISA) from stimulated PD-1-overexpressing Jurkat cells
# Format: cell-based, human
# Conditions: 3.3 μM compound; for Zscore_1 / Zscore_2: IL2 level, α-CD3/α-CD28/α-PD-1 beads; for Zscore_1: replicate 1; for Zscore_2: replicate 2; for Zscore_AVG: average of replicate Z scores
# Method: PD-1-overexpressing Jurkat cells were plated at a concentration of 100,000 cells/well in a total volume of 80 μl. […] Dynabeads conjugated to α-CD3, α-CD28, and α-PD-1 antibodies were added in 20 for a final assay volume of 100 with a final compound concentration of 3.3 μM and an 8:1 bead:cell ratio. Beads were conjugated to α-CD3/α-CD28/control IgG and added to wells containing DMSO-treated cells as a positive control, while beads conjugated to α-CD3/α-CD28/α-PD1 were added to wells containing DMSO-treated cells as a negative control. Supernatants from each well were analyzed for IL2 levels by AlphaLISA (Perkin Elmers) according to the manufacturer's protocol. Average and standard deviation values were calculated from the PD-1 controls (DMSO-treated cells stimulated with α-CD3/α-CD28/α-PD-1 beads); hits were defined as compounds scoring at least 3 standard deviations from the mean of the controls.
# In addition to known negative regulators of IL-2 production (e.g. glycogen synthase kinase-3α/β (GSK3α/β) (24,25)), this screen identified cyclin-dependent kinases 4 and 6 inhibitors (CDK4/6i) as top hits (Table 1).
Compound,Zscore_1,Zscore_2,Zscore_AVG
Nc1[nH]nc2nc3ccccc3nc12 [Cdk1/5 Inhibitor],−2.414,−4.695,−3.555
CC(C)(C)c1nc2c3cc[nH]c(=O)c3c3cc(F)ccc3c2[nH]1 [JAK Inhibitor I],−4.034,−6.012,−5.023
COc1ccc(C(=O)Nc2sc3c(c2C(N)=O)CCCC3)cc1OC [Flt-3 Inhibitor],1.516,2.085,1.801
CCN(CC)CCCCN1c2ccccc2Oc2ccc(Cl)cc21 [Akt Inhibitor X],2.25,6.382,4.316
Cc1ccc(S(=O)(=O)/C=C/C#N)cc1 [BAY 11-7082],−3.877,−4.461,−4.169
O=c1cc(-c2cccc3c2Sc2ccccc2S3)oc(N2CCOCC2)c1 [ATM Kinase Inhibitor],1.379,4.382,2.881
"O=C1NC(=O)c2c1c1c3ccccc3[nH]c1c1[nH]c3ccccc3c21 [Arcyriaflavin A, Synthetic]",3.889,5.674,4.782
IKK Inhibitor VII,−6.154,−3.033,−4.594
COc1cc2ncnc(Nc3cccc(Cl)c3)c2cc1OC [AG 1478],−1.129,−1.216,−1.173
Oc1cccc(-c2nc(N3CCOCC3)c3sccc3n2)c1 [PI 3-Kα Inhibitor IV],1.287,0.7223,1.005
NC(=O)Nc1sc(-c2ccccc2)cc1C(N)=O [IKK-2 Inhibitor VI],−5.576,−7.212,−6.394
Cc1ncc2ccccc2c1C#N [4-Cyano-3-methylisoquinoline],−0.7566,0.1385,−0.3091
"N#CCCc1ccc2c(c1)-c1[nH]c3ccc([N+](=O)[O-])cc3c1CC(=O)N2 [Alsterpaullone, 2-Cyanoethyl]",−5.269,−7.447,−6.358
"CC(=O)O[C@@H]1[C@@H](OC(C)=O)[C@@H](O)[C@H](Oc2c(-c3ccc(O)cc3)oc3cc(O)cc(O)c3c2=O)O[C@H]1C [RSK Inhibitor, SL0101]",1.689,−0.3488,0.67
O=c1c(O)c(-c2ccc(O)c(O)c2)oc2cc(O)c(O)c(O)c12 [Quercetagetin],−1.427,−1.66,−1.543
"CC[C@@H](CO)Nc1nc(NCc2ccccc2)c2ncn(C(C)C)c2n1 (single isomer, unassigned) [Roscovitine, (S)-Isomer]",−2.928,−1.279,−2.103
O=C1Cc2c([nH]c3ccc(Br)cc23)-c2ccccc2N1 [Kenpaullone],−0.7695,−1.747,−1.258
CSc1nc(-c2ccnc(NC(C)c3ccccc3)c2)c(-c2ccc(F)cc2)[nH]1 (stereo not drawn) [p38 MAP Kinase Inhibitor III],−0.7009,0.6426,−0.02917
Cc1nc(N)sc1-c1ccnc(Nc2cccc([N+](=O)[O-])c2)n1 [Cdk2/9 Inhibitor],−10.43,−10.59,−10.51
N#CC(c1ccnc(NCCc2cccnc2)n1)c1nc2ccccc2s1 (stereo not drawn) [JNK Inhibitor V],−0.3788,3.626,1.623

Compound,Zscore_1,Zscore_2,Zscore_AVG
"O=C1Nc2ccc(Cl)cc2/C1=C/c1cc(Cl)c(O)c(Cl)c1 [PKR Inhibitor, Negative Control]",−1.427,−0.4334,−0.9301
"N#Cc1cc([N+](=O)[O-])c2sc(C(N)=O)[n+]([O-])c2c1 [Polo-like Kinase Inhibitor II, BTO-1]",−1.795,−0.518,−1.156
"Nc1[nH]nc2nnc(-c3c(-c4ccccc4)nn4ccccc34)cc12 [ERK Inhibitor II, FR180204]",−2.073,−4.806,−3.439
CNc1cc2c(Nc3cccc(Br)c3)ncnc2cn1 [PD 158780],0.3787,0.8816,0.6302
Cc1ccc(NC2=CC(=O)c3sc(C)nc3C2=O)cc1 [Cdk4 Inhibitor III],−6.073,−8.107,−7.09
O=c1cc(N2CCNCC2)oc2c(-c3ccccc3)cccc12 [LY 303511],1.21,−0.8685,0.1705
"Akt Inhibitor XII, Isozyme- Selective, Akti-2",5.536,15.29,10.41
c1ccc(-c2[nH]ncc2-c2ccnc3ccccc23)nc1 [TGF-b RI Kinase Inhibitor],−0.7181,−1.933,−1.326
"O=C1c2ccccc2-[n+]2ccc3c([nH]c4ccccc43)c21 [Fascaplysin, synthetic]",−6.289,−8.222,−7.256
"CCN1/C(=C/C(C)=O)Sc2ccc(OC)cc21 [Cdc2-Like Kinase Inhibitor, TG003]",−1.367,−2.423,−1.895
"CCCCc1c(-c2ccc(O)cc2)[nH]c2nccnc12 [Aloisine A, RP107]",−3.301,−1.322,−2.311
O=C1Nc2ccc3ncsc3c2/C1=C/c1cnc[nH]1 [PKR Inhibitor],−7.658,−8.086,−7.872
c1nc2nc(Nc3ccc(N4CCOCC4)cc3)nc(NC3CCCCC3)c2[nH]1 [Reversine],−3.512,−5.332,−4.422
PDK1/Akt/Flt Dual Pathway Inhibitor,−10.05,−10.59,−10.32
O=[N+]([O-])c1ccc(-c2nc(-c3ccc(F)cc3)c(-c3ccncc3)[nH]2)cc1 [PD 169316],−0.1697,0.08497,−0.04235
PI 3-Kγ Inhibitor VII,−0.08397,−0.6851,−0.3845
O=C(Nc1cc(Cl)cc2c1[nH]c1cnccc12)c1cccnc1 [IKK Inhibitor X],−4.959,−5.349,−5.154
O=C1Nc2ccc(Br)cc2/C1=C/c1cc2c([nH]1)CCCC2 [VEGF Receptor 2 Kinase Inhibitor II],0.1217,−0.1806,−0.02944
Nc1nccc(-c2c(-c3ccc(F)cc3)ncn2C2CCNCC2)n1 [SB 220025],14.69,27.59,21.14
O=C(Nc1cc(C(F)(F)F)cc(C(F)(F)F)c1)c1cc(Cl)ccc1O [IKK-2 Inhibitor V],−5.485,−7.792,−6.638

# Reference: US11865176B2, “Compositions and methods of modulating anti-tumor immunity” (Dana-Farber Cancer Institute, Inc., priority 2016, dated 2024)
